Results taken from PMC13040083, “Single-molecule dynamics reveal ATP binding alone powers substrate translocation by an ABC transporter” (Nature Communications, 2026).

Legend:
[1] = test system: TmrA^EQB (TmrA^E523QB); test: Single-molecule (smFRET) peptide translocation by slow-turnover TmrA^EQB in liposomes; settings: 10 µM valinomycin, K+ buffer, Mg-ATP 3 mM, peptide 200 µM, 45 °C 5 min; and control at 30 °C
Procedure: For single-molecule experiments, a protein-to-lipid ratio (w/w) of 1:10,000 and an OppA-to-liposome ratio of 0.2 molecules per liposome were used. For ensemble transport assays, a protein-to-lipid ratio (w/w) of 1:20 was applied. Extruded LUVs were destabilized by incubation with 0.3% (v/v) Triton X-100 (TX-100) for 30 min. TmrAB and OppA were then added to the detergent-destabilized liposomes and incubated for 30 min at 8 °C under gentle rotation. Detergent removal was performed gradually using sequential additions of polystyrene Bio-Beads SM-2 (Bio-Rad): two incubations at 40 mg/mL (1 h and overnight), followed by two incubations at 80 mg/mL (1 h each). […]
Single-molecule FRET experiments were conducted using a flow chamber system to immobilize liposomes and transporters in an uptake-competent orientation. […] Laser powers were set to 0.8 mW/cm^2 (532 nm excitation) and 0.9 mW/cm^2 (640 nm excitation), with data recorded in 1-min intervals.
Single-molecule FRET (smFRET) measurements were performed using ALEX, allowing the assignment of detected photons based on both excitation and emission wavelength. […] From these signals, FRET efficiency (E) and stoichiometry (S) were calculated and FRET traces extracted using NanoImager software (ONI Nanoimager Development Build) and analyzed with deepFRET[56]. […] Dynamic smFRET traces were further analyzed via HMM by deepFRET. […]

[2] = test system: TmrAB^WT; test: LC-MS-based peptide transport assay; assay type: biochemical, Thermus thermophilus; settings: Mg-ATP 3 mM, ATP regeneration system, 45 °C 45 min, n = 3 technical replicates
Procedure: For single-molecule experiments, a protein-to-lipid ratio (w/w) of 1:10,000 and an OppA-to-liposome ratio of 0.2 molecules per liposome were used. For ensemble transport assays, a protein-to-lipid ratio (w/w) of 1:20 was applied. Extruded LUVs were destabilized by incubation with 0.3% (v/v) Triton X-100 (TX-100) for 30 min. TmrAB and OppA were then added to the detergent-destabilized liposomes and incubated for 30 min at 8 °C under gentle rotation. Detergent removal was performed gradually using sequential additions of polystyrene Bio-Beads SM-2 (Bio-Rad): two incubations at 40 mg/mL (1 h and overnight), followed by two incubations at 80 mg/mL (1 h each). Finally, proteoliposomes were harvested by ultracentrifugation (100,000 × g, 30 min, 4 °C) and resuspended in the appropriate buffer.
Reactions were stopped with ice-cold liposome buffer containing 10 mM EDTA. Samples were ultracentrifuged (450,000 × g, 30 min, 4 °C), and pellets were resuspended in 200 µL of 100 mM Na2CO3 (pH 11.5), followed by a second ultracentrifugation under the same conditions. […] A final ultracentrifugation (450,000 × g, 1.5 h, 4 °C) was performed before LC-MS analysis using a Waters BioAccord system (UNIFY 3.1.0). […] Quantification was based on total ion chromatogram peak areas at the peptide-specific retention times.

[3] = test system: TmrAB^WT; test: Filter plate-based peptide transport assay; assay type: biochemical, Thermus thermophilus; settings: C4F 10 µM
[4] = test system: TmrAB^WT; test: Single-liposome transport monitored by flow cytometry; assay type: biochemical, Thermus thermophilus; settings: flow cytometry single-liposome assay

Molecule: CC(C)[C@@H]1NC(=O)[C@H](C)OC(=O)[C@@H](C(C)C)NC(=O)[C@@H](C(C)C)OC(=O)[C@H](C(C)C)NC(=O)[C@H](C)OC(=O)[C@@H](C(C)C)NC(=O)[C@@H](C(C)C)OC(=O)[C@H](C(C)C)NC(=O)[C@H](C)OC(=O)[C@@H](C(C)C)NC(=O)[C@@H](C(C)C)OC1=O [valinomycin]
- effect of dissipating membrane potential on translocation [1]: excluded effects from a transmembrane potential

Molecule: GIINTLEEL [9mer peptide]
- ATP-dependent transport, in words [2]: signiﬁcant ATP-dependent transport

Molecule: RRYC(Fluorescein)KSTEL [C4F, RRYC^FLKSTEL, fluorescein-labeled peptide RRYC^FLKSTEL]
- peptide transport, in words ([3]; ATP-EDTA 3 mM): no transport above ADP-EDTA (3 mM) background
- peptide transport, in words ([3]; Mg-ATP 3 mM): robust transport
- ATP-dependent transport, in words [2]: signiﬁcant ATP-dependent transport

B1: Nb9F10: conformation-independent nanobody tethered via PEG11-biotin (antibody, V domains shown)
VH: QLQLVESGGGLVQPGDSLRLSCAVSGSALDYNAIGWFRQAPGKEREGVACISKITGNTAYADCVKGRFTISRDNAKNTVHLQMNSLKPEDTAVYYCATVTAVLLPGRCVPGKYWGQGTPVTVSS
- effect of nanobody binding on TmrAB transport activity [4]: did not alter transport activity
